Laboratory results from ChEMBL document CHEMBL1221220, “Transport and signaling via the amino acid binding site of the yeast Gap1 amino acid transceptor” (Nat Chem Biol, 2009).
Positions count from the first letter of the chain named. Activity calls are given as the source filed them. No cut-off for these calls is given here.

Tests used:
[1] = system: T1, General amino-acid permease GAP1 (Saccharomyces cerevisiae), P19145 [N391C]; test: Activation of yeast Gap1 N391C mutant-mediated amino acid uptake at 10 mM
T1 sequence (whole entry): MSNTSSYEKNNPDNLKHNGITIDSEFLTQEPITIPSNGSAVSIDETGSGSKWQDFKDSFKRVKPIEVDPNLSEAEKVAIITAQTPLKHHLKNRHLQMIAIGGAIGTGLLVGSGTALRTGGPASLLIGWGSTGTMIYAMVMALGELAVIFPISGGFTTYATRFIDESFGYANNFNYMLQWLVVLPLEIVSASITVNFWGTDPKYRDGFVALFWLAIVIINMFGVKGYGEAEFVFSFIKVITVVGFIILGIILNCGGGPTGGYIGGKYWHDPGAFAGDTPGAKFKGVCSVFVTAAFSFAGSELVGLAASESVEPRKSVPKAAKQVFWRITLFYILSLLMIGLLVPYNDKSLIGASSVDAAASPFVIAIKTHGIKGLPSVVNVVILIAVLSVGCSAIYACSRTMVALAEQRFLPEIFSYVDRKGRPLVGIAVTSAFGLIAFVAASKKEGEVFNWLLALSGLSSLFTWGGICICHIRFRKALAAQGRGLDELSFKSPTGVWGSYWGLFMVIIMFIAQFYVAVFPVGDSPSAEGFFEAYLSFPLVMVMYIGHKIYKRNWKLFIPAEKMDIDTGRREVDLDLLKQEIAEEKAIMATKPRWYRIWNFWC

[2] = system: T2, General amino-acid permease GAP1 (Saccharomyces cerevisiae), P19145 [T400C]; test: Activation of yeast Gap1 T400C mutant-mediated amino acid uptake at 10 mM
T2 sequence (whole entry): T1 sequence (whole entry) with C391N, T400C

[3] = system: T3, General amino-acid permease GAP1 (Saccharomyces cerevisiae), P19145 [A405C]; test: Activation of yeast Gap1 A405C mutant-mediated amino acid uptake at 10 mM
T3 sequence (whole entry): T1 sequence (whole entry) with C391N, A405C

[4] = system: T2, General amino-acid permease GAP1 (Saccharomyces cerevisiae), P19145 [T400C]; test: Induction of yeast Gap1 T400C mutant-mediated trehalose activation at 10 mM
[5] = system: T4, General amino-acid permease GAP1 (Saccharomyces cerevisiae), P19145 [A396C]; test: Induction of yeast Gap1 A396C mutant-mediated […] activation at 2 mM in presence of 10 mM MTSEA treated before compound addition
T4 sequence (whole entry): T1 sequence (whole entry) with C391N, A396C

[6] = system: T4, General amino-acid permease GAP1 (Saccharomyces cerevisiae), P19145 [A396C]; test: Induction of yeast Gap1 A396C mutant-mediated amino acid uptake at 2 mM in presence of 10 mM MTSEA treated before compound addition

Activity [1]: inactive | Activity [2]: inactive | Activity [3]: inactive | Activity [4]: inactive | inhibition [5]: Active | Activity [6]: Active
SMILES: NC(=O)NCCC[C@H](N)C(=O)O
